# Target: T1, glycerol dehydrogenase (GDH) (Geobacillus stearothermophilus, UniProt P32816)
# T1 construct: crude, partially or highly purified (DEAE-cellulose, triazine dye-agarose, gel filtration)
# Experiment: GDH assay against analogous substrates, activities (Vmax) relative to glycerol
# Format: biochemical, Bacillus stearothermophilus
# Settings: 30° C., pH 8.5; substrate instead of glycerol
# Protocol: The thermostable GDH enzymes produced from the strains of Bacillus stearothermophilus described above typically have a structure composed of four identical or similar sub-units each of molecular weight about 60,000 giving an overall molecular weight of about 240,000±30,000 daltons. When homogeneous and tested by the assay method described below they have a specific activity of at least 5 and normally about 10 to 30 units per mg protein at 30° C. and pH 8.5. When tested under similar conditions against analogous substrates the activities (Vmax) relative to glycerol (100%) were:
# Assays for GDH activity were carried out by the following procedure and all references to activities in the present description and claims refer to activity as measured by this assay.
# (i) 0.25 M Triethanolamine-HCl (pH 8.5).
# (iii) 10 mg/ml NAD (nicotinamide adenine dinucleotide)
# 600 μl, H2 O, 200 μl triethanolamine-HCl solution, 25 μl NAD solution and 5 to 200 μl of the sample to be assayed were mixed in a cuvette (pathlength 1 cm.). After pre-equilibration to attain 30° C., 100 μl of glycerol solution was added to initiate the reaction.
# The reduction of NAD was followed by spectrophotometric means, by observing the absorbance of the solution at 340 nm. Either a water or reagent blank was used, and units were expressed as μmoles of NADH formed per minute at 30° C. with dilution to give ΔOD340 in the range 0.06 to 0.12 per minute.
# T1 sequence (P32816 whole entry): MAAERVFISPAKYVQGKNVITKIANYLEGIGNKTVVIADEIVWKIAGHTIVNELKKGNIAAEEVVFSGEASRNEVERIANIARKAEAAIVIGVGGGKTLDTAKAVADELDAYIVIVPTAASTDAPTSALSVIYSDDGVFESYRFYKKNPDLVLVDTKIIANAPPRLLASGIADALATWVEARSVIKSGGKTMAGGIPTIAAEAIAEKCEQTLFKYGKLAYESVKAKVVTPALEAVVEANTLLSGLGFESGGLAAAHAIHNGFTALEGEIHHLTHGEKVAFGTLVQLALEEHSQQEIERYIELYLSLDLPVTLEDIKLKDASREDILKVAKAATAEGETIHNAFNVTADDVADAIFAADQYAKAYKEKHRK
row,activity (Vmax) relative to glycerol (100%) [%],Compound
1,49,"OCCC(O)S (stereo not drawn) [3-mercapto-propane1, 3 diol]"
2,< 10,O=C(CO)CO [dihydroxyacetone]
3,16,"OCCCO [propane1, 3diol]"

# The next lines start with the molecule.
row,Compound,activity (Vmax) relative to glycerol (100%) [%]
1,O=C(O)C(O)CO (stereo not drawn) [glyceric acid],< 10
2,"CC(O)CO (stereo not drawn) [propane1, 2 diol]",165

# Same assay, conditions: high concentrations
row,effect on GDH activity,Compound
1,inhibited,N [NH4^+ ions]
